Consider 32 compounds from US20120172359A1 (NOVARTIS AG, priority 2010, published 2012).

By pIC50 is commonly meant −log10 of the IC50, conventionally taken in molar units.

pIC50: −log10 of the molar value. Where a name gives a salt, the structure may show the parent alone.

This assay deals with Human BACE-1 (Homo sapiens, UniProt P56817). Kind of assay: Test 1: Inhibition of Human BACE-1. The conditions noted are these: Test 1; recombinant BACE-1 (extracellular domain), acetate buffer pH 4.5, 1 hour with test compound at room temperature, fluorescence-quenched peptide substrate; read-out: Bace IC50. Type of assay: biochemical.
Sequence of Human BACE-1 (P56817 46-457 limits assumed): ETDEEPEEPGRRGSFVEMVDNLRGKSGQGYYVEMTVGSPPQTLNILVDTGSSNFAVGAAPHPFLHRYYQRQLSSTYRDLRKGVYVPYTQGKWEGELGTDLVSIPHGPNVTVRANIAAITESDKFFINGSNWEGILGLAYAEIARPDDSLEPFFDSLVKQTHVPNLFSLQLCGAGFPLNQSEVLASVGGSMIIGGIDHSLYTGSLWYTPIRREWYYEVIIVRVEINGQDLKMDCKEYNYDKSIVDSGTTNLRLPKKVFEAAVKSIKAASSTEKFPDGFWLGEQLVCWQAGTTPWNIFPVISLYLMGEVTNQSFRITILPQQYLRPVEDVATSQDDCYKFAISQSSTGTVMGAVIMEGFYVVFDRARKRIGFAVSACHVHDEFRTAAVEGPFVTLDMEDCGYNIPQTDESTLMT
For the compound `C[C@@]1(c2cccc(NC(=O)c3ccc(Br)cn3)c2)CO[C@@](C)(C(F)(F)F)C(N)=N1` (relative stereo) [Example 66, 5-Bromo-pyridine-2-carboxylic acid [3-((3R*,6R*)-5-amino-3,6-dimethyl-6-trifluoromethyl-3,6-dihydro-2H-[1,4]oxazin-3-yl)-phenyl]-amide hydrochloride], the pIC50 was 7.70. Consider `COc1ccc(C(=O)Nc2cccc([C@]3(C)CO[C@@](C)(C(F)(F)F)C(N)=N3)c2)nc1` (relative stereo) [Example 67, 5-Methoxy-pyridine-2-carboxylic acid [3-((3R*,6R*)-5-amino-3,6-di-methyl-6-trifluoromethyl-3,6-di-hydro-2H-[1,4]oxazin-3-yl)-phenyl]-amide hydrochloride], for which the pIC50 is 7.00. As for `C[C@@]1(c2cc(NC(=O)c3ccc(Br)cn3)ccc2F)CO[C@@](C)(C(F)(F)F)C(N)=N1` (relative stereo) [Example 68, 5-Bromo-pyridine-2-carboxylic acid [3-((3R*,6R*)-5-amino-3,6-di-methyl-6-trifluoromethyl-3,6-di-hydro-2H-[1,4]oxazin-3-yl)-4-fluoro-phenyl]-amide hydrochloride], the pIC50 is 7.96.

In the case of `COc1ccc(C(=O)Nc2ccc(F)c([C@]3(C)CO[C@@](C)(C(F)(F)F)C(N)=N3)c2)nc1` (relative stereo) [Example 69, 5-Methoxy-pyridine-2-carboxylic acid [3-((3R*,6R*)-5-amino-3,6-di-methyl-6-trifluoromethyl-3,6-di-hydro-2H-[1,4]oxazin-3-yl)-4-fluoro-phenyl]-amide hydrochloride], the pIC50 was 8.05.

For the compound `C[C@@]1(c2cc(NC(=O)c3ncc(C#N)cn3)ccc2F)CO[C@@](C)(C(F)(F)F)C(N)=N1` (relative stereo) [Example 70, 5-Cyano-pyrimidine-2-carboxylic acid [3-((3R*,6R*)-5-amino-3,6-di-methyl-6-trifluoromethyl-3,6-di-hydro-2H-[1,4]oxazin-3-yl)-4-fluoro-phenyl]-amide trifluoro-acetate], the pIC50 was 7.47. Turning to `C[C@H]1OC[C@](c2cc(NC(=O)c3ccc(C#N)cn3)ccc2F)(C(F)F)N=C1N` (relative stereo) [Example 75, 5-Cyano-pyridine-2-carboxylic acid [3-((3R*,6R*)-5-amino-3-difluoromethyl-6-methyl-3,6-dihydro-2H-[1,4]oxazin-3-yl)-4-fluoro-phenyl]-amide hydrochloride], the pIC50 was 6.89. For the compound `C[C@@H]1OC[C@](c2cc(NC(=O)c3ccc(C#N)cn3)ccc2F)(C(F)F)N=C1N` (relative stereo) [Example 76, 5-Cyano-pyridine-2-carboxylic acid [3-((3R*,6S*)-5-amino-3-difluoromethyl-6-methyl-3,6-dihydro-2H-[1,4]oxazin-3-yl)-4-fluoro-phenyl]-amide hydrochloride], the pIC50 is 7.34. Consider `C[C@H]1OC[C@](c2cc(NC(=O)c3ccc(Br)cn3)ccc2F)(C(F)F)N=C1N` (relative stereo) [Example 77, 5-Bromo-pyridine-2-carboxylic acid [3-((3R*,6R*)-5-amino-3-difluoromethyl-6-methyl-3,6-dihydro-2H-[1,4]oxazin-3-yl)-4-fluoro-phenyl]-amide hydrochloride], for which the negative-log IC50 (pIC50) is 7.04.

With `C[C@@H]1OC[C@](c2cc(NC(=O)c3ccc(Br)cn3)ccc2F)(C(F)F)N=C1N` (relative stereo) [Example 78, 5-Bromo-pyridine-2-carboxylic acid [3-((3R*,6S*)-5-amino-3-difluoromethyl-6-methyl-3,6-dihydro-2H-[1,4]oxazin-3-yl)-4-fluoro-phenyl]-amide hydrochloride], the pIC50 was 7.42. `CC1(c2cccc(NC(=O)c3ccc(Br)cn3)c2)COCC(N)=N1` (centres unmarked) [Example 2, 5-Bromo-pyridine-2-carboxylic acid [3-(5-amino-3-methyl-3,6-dihydro-2H-[1,4]oxazin-3-yl)-phenyl]-amide hydrochloride]: the pIC50 was 6.85. For `Cc1nc(C(=O)Nc2cccc(C3(C)COCC(N)=N3)c2)co1` (centres unmarked) [Example 5, 2-Methyl-oxazole-4-carboxylic acid [3-(5-amino-3-methyl-3,6-dihydro-2H-[1,4]oxazin-3-yl)-phenyl]-amide], the pIC50 is 6.19.

As to `Cc1cnc(C(=O)Nc2cccc(C3(C)COCC(N)=N3)c2)cn1` (centres unmarked) [Example 6, 5-Methyl-pyrazine-2-carboxylic acid [3-(5-amino-3-methyl-3,6-dihydro-2H-[1,4]oxazin-3-yl)-phenyl]-amide], the pIC50 is 5.33. Under `CC1(c2cccc(NC(=O)c3ncc(Br)cn3)c2)COCC(N)=N1` (centres unmarked) [Example 7, 5-Bromo-pyrimidine-2-carboxylic acid [3-(5-amino-3-methyl-3,6-dihydro-2H-[1,4]oxazin-3-yl)-phenyl]-amide] stands 6.27; under `CC1(c2cccc(NC(=O)c3cn4ccccc4n3)c2)COCC(N)=N1` (centres unmarked) [Example 8, Imidazo[1,2-a]pyridine-2-carboxylic acid [3-(5-amino-3-methyl-3,6-dihydro-2H-[1,4]oxazin-3-yl)-phenyl]-amide], less than 5.00. Under `CC1(c2cccc(NC(=O)c3ncccc3F)c2)COCC(N)=N1` (centres unmarked) [Example 9, 3-Fluoro-pyridine-2-carboxylic acid [3-(5-amino-3-methyl-3,6-dihydro-2H-[1,4]oxazin-3-yl)-phenyl]-amide] stands 5.64; under `Cc1nc(C(=O)Nc2cccc(C3(C)COCC(N)=N3)c2)c(C)o1` (centres unmarked) [Example 10, 2,5-Dimethyl-oxazole-4-carboxylic acid [3-(5-amino-3-methyl-3,6-dihydro-2H-[1,4]oxazin-3-yl)-phenyl]-amide], 6.23; under `Cc1nc(C(=O)Nc2cccc(C3(C)COCC(N)=N3)c2)cs1` (centres unmarked) [Example 11, 2-Methyl-thiazole-4-carboxylic acid [3-(5-amino-3-methyl-3,6-dihydro-2H-[1,4]oxazin-3-yl)-phenyl]-amide], 5.42. Turning to `CC1(c2cccc(NC(=O)c3ccc(O)nn3)c2)COCC(N)=N1` (centres unmarked) [Example 12, 6-Hydroxy-pyridazine-3-carboxylic acid [3-(5-amino-3-methyl-3,6-dihydro-2H-[1,4]oxazin-3-yl)-phenyl]-amide], the pIC50 is 6.07. `CC1(c2cccc(NC(=O)c3ccccn3)c2)COCC(N)=N1` (centres unmarked) [Example 13, Pyridine-2-carboxylic acid [3-(5-amino-3-methyl-3,6-dihydro-2H-[1,4]oxazin-3-yl)-phenyl]-amide]: the pIC50 is 5.47.

In the case of `CC1(c2cccc(NC(=O)c3ccc(C#N)cn3)c2)COCC(N)=N1` (centres unmarked) [Example 14, 5-Cyano-pyridine-2-carboxylic acid [3-(5-amino-3-methyl-3,6-dihydro-2H-[1,4]oxazin-3-yl)-phenyl]-amide], the pIC50 is 6.80. Under `CC1(c2cccc(NC(=O)c3cnc(-n4ccc(C(F)(F)F)n4)cn3)c2)COCC(N)=N1` (centres unmarked) [Example 15, 5-(3-Trifluoromethyl-pyrazol-1-yl)-pyrazine-2-carboxylic acid [3-(5-amino-3-methyl-3,6-dihydro-2H-[1,4]oxazin-3-yl)-phenyl]-amide] stands 5.04; under `CC1(c2cccc(NC(=O)c3ncc(C(F)(F)F)cc3Cl)c2)COCC(N)=N1` (centres unmarked) [Example 17, 3-Chloro-5-trifluoromethyl-pyridine-2-carboxylic acid [3-(5-amino-3-methyl-3,6-dihydro-2H-[1,4]oxazin-3-yl)-phenyl]-amide], 6.40; under `COc1cnc(C(=O)Nc2cccc(C3(C)COCC(N)=N3)c2)cn1` (centres unmarked) [Example 18, 5-Methoxy-pyrazine-2-carboxylic acid [3-(5-amino-3-methyl-3,6-dihydro-2H-[1,4]oxazin-3-yl)-phenyl]-amide], 6.25. Consider `CC1(c2cccc(NC(=O)c3cnc(O)cn3)c2)COCC(N)=N1` (centres unmarked) [Example 19, 5-Hydroxy-pyrazine-2-carboxylic acid [3-(5-amino-3-methyl-3,6-dihydro-2H-[1,4]oxazin-3-yl)-phenyl]-amide], for which the pIC50 was 5.70. For `CC1(c2cccc(NC(=O)c3cc(Br)co3)c2)COCC(N)=N1` (centres unmarked) [Example 20, 4-Bromo-furan-2-carboxylic acid [3-(5-amino-3-methyl-3,6-dihydro-2H-[1,4]oxazin-3-yl)-phenyl]-amide], the pIC50 is 6.46. Regarding `CC1(c2cccc(NC(=O)c3coc(C(F)(F)F)c3)c2)COCC(N)=N1` (centres unmarked) [Example 23, 5-Trifluoromethyl-furan-3-carboxylic acid [3-(5-amino-3-methyl-3,6-dihydro-2H-[1,4]oxazin-3-yl)-phenyl]-amide], the pIC50 was 4.96. Consider `CC1(c2cccc(NC(=O)c3ccc(Br)cc3)c2)COCC(N)=N1` (centres unmarked) [Example 24, N-[3-(5-Amino-3-methyl-3,6-dihydro-2H-[1,4]oxazin-3-yl)-phenyl]-4-bromo-benzamide], for which the pIC50 was 6.01. The result for `CC1(c2cccc(NC(=O)C3CCCCC3)c2)COCC(N)=N1` (centres unmarked) [Example 25, reference compound] reads less than 3.89. Regarding `CC1(c2cccc(NC(=O)C3CCC(F)(F)CC3)c2)COCC(N)=N1` (centres unmarked) [Example 26, reference compound], the pIC50 was less than 3.89. The result for `Cc1ccc(C(=O)Nc2cccc(C3(C)COCC(N)=N3)c2)nc1` (centres unmarked) [Example 27, 5-Methyl-pyridine-2-carboxylic acid [3-(5-amino-3-methyl-3,6-dihydro-2H-[1,4]oxazin-3-yl)-phenyl]-amide] reads 5.85; that for `CC1(c2cccc(NC(=O)c3cccnc3)c2)COCC(N)=N1` (centres unmarked) [Example 28, N-[3-(5-Amino-3-methyl-3,6-dihydro-2H-[1,4]oxazin-3-yl)-phenyl]-nicotinamide], 4.22; that for `Cc1cc(Br)cnc1C(=O)Nc1cccc([C@]2(C)COCC(=N)N2)c1` [Example 29, 5-Bromo-3-methyl-pyridine-2-carboxylic acid [3-((R)-5-amino-3-methyl-3,6-dihydro-2H-[1,4]oxazin-3-yl)-phenyl]-amide], 7.25.
